In brackets after ≈: the same amount, converted by molar mass.
What was measured:
[1] = Selectivity ratio of IC50 for Candida albicans MY1055 NADH:cytochrome bc1 reductase to IC50 for rat liver NADH:cytochrome bc1 reductase
Candida albicans [2] = assay: Ratio of MIC for Candida albicans MY1055 in presence of 10% mouse plasma to MIC for Candida albicans MY1055 in absence of mouse plasma; type: functional
Candida albicans [3] = assay: Ratio of IC50 for Candida albicans MY1055 NADH:cytochrome bc1 reductase in presence of 40% mouse plasma to IC50 for Candida albicans MY1055 NADH:cytochrome bc1 reductase in absence of mouse plasma
[4] = Inhibition of Candida albicans MY1055 NADH:cytochrome bc1 reductase
[5] = Inhibition of rat liver NADH:cytochrome bc1 reductase
[6] = Inhibition of Candida albicans MY1055 NADH:cytochrome bc1 reductase in presence of 40% mouse plasma; type: cell-free
Candida albicans [7] = assay: Antifungal activity against Candida albicans MY1055 assessed as growth inhibition after 24 hrs by liquid microdilution assay in presence of 10% mouse plasma; type: functional
Candida albicans [8] = assay: Antifungal activity against Candida albicans MY1055 assessed as growth inhibition after 24 hrs by liquid microdilution assay; type: functional; conditions: MY1055, 24 h
Candida albicans [9] = assay: Antifungal activity against Candida albicans MY1055 assessed as growth inhibition after 24 hrs by liquid microdilution assay in presence of 10% mouse plasma

| SMILES | Ratio IC50 [1] | Ratio (Candida albicans [2]) | Ratio IC50 (Candida albicans [3]) | IC50 [4] | IC50 [5] | IC50 [6] | MIC (Candida albicans [7]) | MIC (Candida albicans [8]) | MIC (Candida albicans [9]) |
| --- | --- | --- | --- | --- | --- | --- | --- | --- | --- |
| C/C=C/[C@@H]1[C@H]2C[C@@H](C)CC[C@@H]2C(C)=C[C@H]1C(=O)c1c(O)c(-c2ccc(O)cc2)c[nH]c1=O [ILICICOLIN H] | > 1000 | >25 | 140 | 0.0005 µg/mL (≈ 0.00115 µM) | 2 µg/mL (≈ 4.61 µM) | 0.07 µg/mL | > 1 µg/mL | 0.02 µg/mL (≈ 0.0461 µM) |  |
| CC1=C[C@@H](C(=O)c2c(O)c(-c3ccc(O)cc3)c[nH]c2=O)[C@H]([C@@H]2OC2C)[C@H]2C[C@@H](C)CC[C@H]12 (stereo not given in full) |  |  | 192 | 0.0052 µg/mL (≈ 0.0116 µM) | 1 µg/mL (≈ 2.22 µM) | 1 µg/mL | > 1 µg/mL | 0.625 µg/mL (≈ 1.39 µM) | > 1 µg/mL |
